Measured values: PMC3520974, “Differential Dynamic Engagement within 24 SH3 Domain: Peptide Complexes Revealed by Co-Linear Chemical Shift Perturbation Analysis” (PLoS ONE, 2012)

B1: PRR1, 15-residue peptide found N-terminal to AbpSH3 (residues 516 to 530 in Abp1p) (peptide, UniProt P15891 516-530, looked up)
peptide: Ac-AAPPPPPRRATPEKK-NH2
notes: residues 516 to 530 of yeast Abp1p, proline-rich region N-terminal to the SH3 domain, 15 residues; source: synthetic peptide (Biomer tech), purified to greater than 95% by HPLC

Assays:
[1] = tested on: Abp1p SH3 domain (AbpSH3); test: Isothermal titration calorimetry of peptide binding to AbpSH3; set-up: species or system yeast
Description: Binding isotherms were recorded as previously at 30°C [23]. Enthalpy changes were measured at 4 different temperatures (20, 25, 30, 35°C) and the slopes of temperature vs. enthalpy change were fit to yield the change in heat capacity. All samples were in 50 mM sodium phosphate, 100 mM NaCl, 1 mM EDTA pH 7.0. Errors are ±95% confidence intervals except the ΔCP values, which report the standard error of the least squared fit to the data (ΔH vs. temperature).

[2] = tested on: Abp1p SH3 domain (AbpSH3); test: Co-linear chemical shift perturbation (CCSP) analysis of peptide-saturated AbpSH3 complexes by NMR; assay type: binding, yeast; details: rank among the 24 complexes; >99% peptide-saturated
Description: NMR experiments were carried out at 30°C on Varian 500 MHz spectrometers equipped with pulsed field gradients and a triple resonance probe with actively shielded z-gradients. Data were processed and analyzed using nmrPipe/nmrDraw and nmrView. All spectra were recorded in 50 mM sodium phosphate, 100 mM NaCl, 1 mM EDTA pH 7.0. ^1H-^15N HSQC spectra were collected using standard methods. ^1H-^13C HSQC spectra were recorded using constant time HSQC experiments.
AbpSH3 complexes were assigned using the established assignments of ArkA-bound and free AbpSH3 [8]; serial peptide additions were used to monitor the direction that the peaks moved to assign the final position of the SH3 resonances. […] The assignments were also compared to the previously determined ArkA-AbpSH3 complex resonances. […]
The combined ^1H and ^15N chemical shift differences (in ppm) between each pair of resonances that define the lines x, y and z were calculated using the following expression: δΔ = √((Nppm shift * 0.1)^2+(Hppm shift)^2), where Nppm shift is the difference in ppm in the nitrogen dimension and Hppm is the difference in ppm in the proton dimension. The perpendicular distance (p) between the resonance and the CCSP line was calculated in the following way: p = √(x^2−s^2), where x = length of line connecting resonance to peptide free resonance and s = scalar projection. […]

[3] = tested on: Abp1p SH3 domain (AbpSH3); test: Hydrogen exchange protection of AbpSH3 complexes by NMR; assay type: binding, yeast; details: sum of log amide protection factors of SII residues; 99% peptide-saturated 100 µM AbpSH3 in D2O, pH 7.0, 18°C, HSQC every 20 minutes over 24 hours
Description: All hydrogen exchange experiments were conducted in 50 mM sodium phosphate, 100 mM NaCl, 1 mM EDTA pH 7.0, 18°C. Based on the known binding constants, sufficient peptide was added to 100 µM AbpSH3 such that 99% saturation was achieved (this was confirmed by comparing the chemical shifts of previously recorded peptide-saturated samples) for 7 different AbpSH3 complexes (Table S4). The samples were lyophilized and resuspended in D2O, and ^1H-^15N HSQC spectra were recorded every 20 minutes over a period of 24 hours. Many peaks disappeared over time. Intensities of peaks were fit to exponential curves, to yield observed rate constants (kexchange) for each amide group. The rate constant was converted to log protection factor (P), log10(kintrinsic/kexchange) using values for amide protection of free amino acids (http://hx2.med.upenn.edu/download.html). […] These residues became protected to different degrees in the different complexes although they all still exchanged sufficiently fast for their rates to be accurately calculated within the timeframe of the experiment. The biggest difference for the sum between complexes is about 20, which corresponds to a residue ΔΔG of −2.8 kcal/mol, which is approximately the difference between the strongest and weakest peptide binding energy.

[4] = molecular target: T1, Abp1p SH3 domain (SH3 domain from the yeast Actin Binding Protein 1) (yeast, UniProt P15891 532-592); test: NMR titration; 1H-15N HSQC of AbpSH3 (70-100 µM) with serial peptide additions to 99% or greater saturation; 30°C; 50 mM sodium phosphate, 100 mM NaCl, 1 mM EDTA pH 7.0; details: both partners purified
T1 construct: 15N-labelled for the NMR work; also called AbpSH3
T1 sequence (looked up): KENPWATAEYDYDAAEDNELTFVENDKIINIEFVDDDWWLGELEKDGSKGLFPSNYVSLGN

Molecule | change in heat capacity (ΔCp) on complex formation ([1]; ITC, enthalpy changes at 20, 25, 30, 35°C, slope of ΔH vs. temperature, 50 mM sodium phosphate, 100 mM NaCl, 1 mM EDTA pH 7.0) | binding energy ([1]; rank among the 24 complexes, ITC at 30°C) | CCSP values in AbpSH3 [2] | SII hydrogen exchange protection (Σ LogP in SII) [3] | binding result [4]
PRR: 15-residue peptide found N-terminal to AbpSH3 (residues 516 to 530 in Abp1p) (Ac-AAPPPPPRRATPEKK-NH2) | ~0 kcal/mol K | the lowest measured | lowest | ~0 | 
B1 |  |  |  |  | binds
